Paper PMC10673615, “Quercetin-1,2,3-Triazole Hybrids as Multifunctional Anti-Alzheimer’s Agents” (Molecules, 2023)
Read-outs that look alike come from different tables or passages of the source.

Experiments:
MCF-7 cells [1] = assay: in vitro
Description: (§1) Given the importance of oxidative stress-induced apoptosis of neuronal cells in AD, we present here a study to investigate the effect of quercetin-1,2,3-triazole hybrids on H2O2-induced oxidative damage in cultured MCF-7 cells, used as a human cell model. Viability was assessed with the WST-1 test in the absence and in the presence of an oxidative stressor (10^−4 M H2O2).
(§2) MCF-7 (Human breast adenocarcinoma (MERCK—# 86012803-DNA-5UG), Database Name: ECACC collection, Accession Numbers: 86012803) was the cell line elected as a cell injury model for the study of the potential protective effect of the butyrylcholinesterase inhibitors (hybrids) against hydrogen peroxide-induced oxidative stress. Cytotoxicity of the hybrids was also evaluated.
The compounds to be tested were firstly dissolved in dimethyl sulfoxide (DMSO) at a concentration of 4 × 10^−2 M. They were then diluted in cell growth media (EMEM) (supplemented with FBS 10%) with 0.25% DMSO to obtain solutions between 6.25 and 50.00 µM.
Eagle’s Minimum Essentia Medium (EMEM), including 10% fetal bovine serum (FBS), 100 IU/mL penicillin, and 100 μg/mL streptomycin, was used to culture MCF-7 cells at 37 °C in 5% CO2 atmosphere incubator with media replenished every 2 days. A total of 5 × 10^3 cells were cultured in 96-well plates and incubated for 72 h prior to stimulus application.
(§3) The culture medium was subsequently replaced with different final concentrations (6.25–50 μM) of the compounds to be tested. Negative controls were prepared, incubating cells in culture media.
(§4) Parallel experiments were performed for cytotoxicity assessment and for protective effect against hydrogen peroxide-induced oxidative stress evaluation. First, 10 μL of PBS was added in the designated wells; second, 10 μL of H2O2 (reaching a final concentration of 100 µM) was added. Following a 2 h incubation period at 37 °C in 5% CO2 atmosphere incubator, cellular viability was measured by adding WST-1 dehydrogenases substrate and incubating for 1 h, and the amount of formazan dye produced was evaluated by measuring the absorbance at 440 nm.

MCF-7 cells [2] = assay: Protective assay against hydrogen peroxide-induced oxidative stress in MCF-7 cells; format: cell-based, Human; conditions: 100 µM H2O2, 2 h
Description: as §1, §2, §3, §4

Artemia salina = Artemia salina lethal toxicity assay; format: in vivo; conditions: for concentrations without toxicity: Artemia salina
Description: (§5) Artemia salina was used for in vivo general toxicity assessment of the promising hybrids IVb, IVd, and IIf; the results are shown in Table 4 and Figure 7. K2Cr2O7 was used as a control. Hybrid IVd presented the lowest toxicity.
(§6) The ARTOXKIT M protocol was used. The percentage of dyed nauplii of Artemia salina, grown in the presence of variable concentrations of the inhibitor compounds, was measured to determine the LC50 values. A test with K2Cr2O7 was used for quality control.

eqBuChE [3] = molecular target: T1, eqBuChE (Equus caballus, UniProt P81908); assay: Kinetic study for the inhibition of eqBuChE (Lineweaver-Burk); format: biochemical; conditions: for Inhibition type / Ki: Lineweaver-Burk; for Ki: read-out: Ki (inhibitory constant)
T1 construct: equine serum butyrylcholinesterase (eqBuChE); purchased Sigma-Aldrich (lyophilized powder, 10.9 U/mg); host or cells: equine serum
T1 sequence (P81908 whole entry): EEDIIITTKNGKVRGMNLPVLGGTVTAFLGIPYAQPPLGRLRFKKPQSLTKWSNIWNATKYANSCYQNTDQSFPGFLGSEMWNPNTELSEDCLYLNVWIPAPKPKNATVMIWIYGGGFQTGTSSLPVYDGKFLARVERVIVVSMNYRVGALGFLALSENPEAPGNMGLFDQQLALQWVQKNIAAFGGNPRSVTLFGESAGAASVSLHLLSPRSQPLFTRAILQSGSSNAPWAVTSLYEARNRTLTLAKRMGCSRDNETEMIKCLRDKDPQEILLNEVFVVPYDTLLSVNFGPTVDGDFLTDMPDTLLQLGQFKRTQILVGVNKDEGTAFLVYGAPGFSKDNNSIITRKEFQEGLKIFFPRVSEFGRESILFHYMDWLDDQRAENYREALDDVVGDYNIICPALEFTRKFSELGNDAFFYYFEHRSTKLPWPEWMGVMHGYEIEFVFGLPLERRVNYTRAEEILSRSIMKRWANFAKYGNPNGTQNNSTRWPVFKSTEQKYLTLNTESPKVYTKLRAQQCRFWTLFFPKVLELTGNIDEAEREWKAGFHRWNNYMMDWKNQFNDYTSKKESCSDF
Text: The interaction with the active center of the enzyme thus seems to be favored by the presence of polar groups. Hybrid IIf presented the smaller Ki (Table 3), binding to the enzyme with the higher affinity, which can be relevant for pharmacologic applications in the future.
Lineweaver–Burk plot (1/V vs. 1/[BTCI]) was used for determining the inhibition constants (Ki’s) and the mechanism of action.

eeAChE = molecular target: T2, eeAChE (Electrophorus electricus, UniProt O42275); assay: Ellman cholinesterase inhibitory assay, eeAChE screening; format: biochemical; conditions: compound 100 µM; substrate 3 mM
T2 construct: catalogue number not given
T2 sequence (O42275 24-633): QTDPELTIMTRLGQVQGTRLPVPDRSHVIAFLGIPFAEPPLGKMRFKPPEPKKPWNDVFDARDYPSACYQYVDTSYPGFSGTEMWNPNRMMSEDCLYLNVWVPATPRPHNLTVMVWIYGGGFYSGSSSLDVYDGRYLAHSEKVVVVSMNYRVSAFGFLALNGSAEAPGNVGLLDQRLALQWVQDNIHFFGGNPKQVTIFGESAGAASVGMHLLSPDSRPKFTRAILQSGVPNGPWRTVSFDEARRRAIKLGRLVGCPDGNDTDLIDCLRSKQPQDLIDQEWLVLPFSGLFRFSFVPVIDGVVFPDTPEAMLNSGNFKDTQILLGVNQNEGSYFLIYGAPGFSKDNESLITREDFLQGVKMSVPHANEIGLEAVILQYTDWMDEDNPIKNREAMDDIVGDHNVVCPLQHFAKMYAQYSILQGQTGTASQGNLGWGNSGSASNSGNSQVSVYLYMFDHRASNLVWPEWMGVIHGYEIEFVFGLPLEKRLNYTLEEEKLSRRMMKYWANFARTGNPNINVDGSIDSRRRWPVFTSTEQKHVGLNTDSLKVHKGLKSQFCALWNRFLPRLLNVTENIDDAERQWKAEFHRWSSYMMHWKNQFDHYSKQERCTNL
Description: (§7) Firstly, the inhibitory activity of the quercetin-1,2,3-triazole hybrids I–IV was screened in vitro on eeAChE and eqBuChE at a concentration of 100 μM (these enzymes are considered as models of the human isoform). The ChE inhibitory activity of all compounds was evaluated using the method of Ellman.
(§8) The inhibitory activities of title compounds against commercially available cholinesterases (eeAChE) (Electrophorus electricus, Type V-S), eqBuChE (equine serum), were conducted using minor modifications of Ellman’s assay. Nine different concentrations ([…], 37.5, 75, 150, and 300 μM in H2O:DMSO (50:50)) of each test compound were used to determine the enzyme-inhibition activity. Briefly, 55 μL of 50 mM Tris-HCl buffer at pH 8, 25 μL of eqBuChE (0.03 U/mL), 20 μL of the test or standard compounds, and 125 μL of DTNB (0.8 mM) were incubated in 96-well plates at 37 °C for 15 min. Further, 25 μL of the substrate, BTCI (0.8 mM), was added, and the solution was incubated for additional 15 min. Finally, the absorbance was measured at 412 nm wavelength using a Microplate Spectrophotometry (TriStar® S LB 942 model instrument). The IC50 values were determined from the absorbance obtained for various concentrations of the test and the standard compounds. All determinations were performed in triplicate.
(§9) To determine the % of inhibition ([I] = 100 μM), the substrate concentration (acetylthiocholine iodide for AChE; S-butyrylthiocholine iodide for BuChE) was fixed at 3 mM.

[4] = Artemia salina lethal toxicity assay; format: in vivo; conditions: Artemia salina, in vivo, other: grown in the presence of the compound, Artemia salina nauplii
Description: as §5, §6

eqBuChE [5] = molecular target: T1, eqBuChE; assay: Ellman cholinesterase inhibitory assay, eqBuChE (screening and IC50); format: biochemical; conditions: for inhibition at 100 µM: compound 100 µM, substrate 3 mM
Description: as §7, §8, §9

[6] = DPPH radical scavenging antioxidant assay
Description: To assess the antioxidant activity of hybrids IVa–e, IIf and quercetin, the 2,2-diphenyl-1-[…] (DPPH) radical scavenging colorimetric method was used, which is one of the most widely used methods for determining antioxidant activity. In this method, antioxidants react with DPPH (which has a strong violet color) and convert it into yellow diphenylpicrylhydrazine. Compounds were assayed in the range of concentrations from 3 to 200 μg/mL. Ascorbic acid was used as positive control. […] Another piece of evidence is the similarity between the % inhibition values of hybrids IVa,b and IVd,e and quercetin.
The colorimetric DPPH assay was carried out as described in [33]. […] In brief, 30 μL of a test compound (in MeOH) was mixed with 200 μL of DPPH (100 μM in methanol) in a 96-well plate in triplicate. After 30 min incubation at room temperature in the absence of light, the absorbances were measured at 517 nm using Microplate Spectrophotometry (TriStar® S LB 942 model instrument). The free radical scavenging activity results are expressed as a percentage of DPPH inhibition according to the following formula:
% of Inhibition = 100[(A(Blank) − A(sample))/A(blank)], where A(blank) consists of methanol (30 μL) mixed with DPPH (200 μL) absorbance, and A(sample) is the absorbance value for the added sample concentration compound mixed with DPPH. Ascorbic acid was used as a positive control.

[7] = test system: REM-138 cell line (canine breast cancer); parameters: method as in doi:10.1055/s-0040-1719928; conditions: REM cells; 72 h incubation; cited from earlier work
[8] = concentration range 1.2-300 µM, BTCI 0.8 mM, read-out: IC50 values for eqBuChE

SMILES | cellular antioxidant protection against H2O2 (MCF-7 cells [2]) | inhibition at 100 µM (eeAChE) [%] | inhibition at 100 µM (eqBuChE [5]) [%] | IC50 (eqBuChE [5]; [8]) [µM] | also measured
COc1ccc2c3c1O[C@H]1C[C@@H](O)C=C[C@@]31CCN(C)C2 [Galantamine, reference compound] | good antioxidant cellular protection |  |  |  | effect on cellular viability (MCF-7 cells [1]; concentrations tested 6.25-50 μM, MCF-7): did not reduce cellular viability
[K+].[K+].[O]=[Cr](=[O])([O-])[O][Cr](=[O])(=[O])[O-] [Hybrid K2Cr2O7, K2Cr2O7, reference compound] |  |  |  |  | LC50 (Artemia salina; Artemia salina nauplii, quality control): 22.7 mg/L
COc1cc(OC)c2c(=O)c(OCCCCn3cc(CN4C(=O)C(=O)c5ccccc54)nn3)c(-c3ccc(OC)c(OC)c3)oc2c1 [IIf, 1-((1-(4-((2-(3,4-Dimethoxyphenyl)-5,7-dimethoxy-4-oxo-4H-chromen-3-yl)oxy)butyl)-1H-1,2,3-triazol-4-yl)methyl)indoline-2,3-dione] | equally effective in the antioxidant protection | 24.3 | 100 | 11.2 | Inhibition type (eqBuChE [3]): competitive inhibition; Ki (eqBuChE [3]): 6.2 µM; Vmax app (eqBuChE [3]; inhibitor 5 µM): 11.8 U.mg^−1; Vmax app (eqBuChE [3]; inhibitor 20 µM): 11.4 U.mg^−1; Vmax app (eqBuChE [3]; inhibitor 40 µM): 13.4 U.mg^−1; concentrations without toxicity (Artemia salina): ≤ 10 µM; LC50 [4]: 34.6 µM; DPPH antioxidant activity ([6]; 3 to 200 μg/mL): no antioxidant activity
CCCc1cn(CCCCOc2c(-c3ccc(OC)c(OC)c3)oc3cc(OC)cc(OC)c3c2=O)nn1 [IIh, 2-(3,4-Dimethoxyphenyl)-5,7-dimethoxy-3-(4-(4-propyl-1H-1,2,3-triazol-1-yl)butoxy)-4H-chromen-4-one] |  | 38.6 | 7.97 | > 300 | 
COc1cc(OC)c2c(=O)c(OCCCCn3cc(C(C)(C)N)nn3)c(-c3ccc(OC)c(OC)c3)oc2c1 [IIi, 3-(4-(4-(2-Aminopropan-2-yl)-1H-1,2,3-triazol-1-yl)butoxy)-2-(3,4-dimethoxyphenyl)-5,7-dimethoxy-4H-chromen-4-one] |  | 0 | 74.4 | 70.2 | 
O=c1c(OCCCCn2cc(-c3ccccc3)nn2)c(-c2ccc(O)c(O)c2)oc2cc(O)cc(O)c12 [IVa, 2-(3,4-Dihydroxyphenyl)-5,7-dihydroxy-3-(4-(4-phenyl-1H-1,2,3-triazol-1-yl)butoxy)-4H-chromen-4-one] |  | 0 | 82.8 | 24.7 | reduction of cellular viability (MCF-7 cells [1]; 6.25 μM, MCF-7, 2 h, without H2O2): 40%; cytotoxic concentration [7]: > 10 µM; DPPH antioxidant activity ([6]; 100 μg/mL): potent antioxidant activity
O=c1c(OCCCCn2cc(C3CC3)nn2)c(-c2ccc(O)c(O)c2)oc2cc(O)cc(O)c12 [IVb, 3-(4-(4-Cyclopropyl-1H-1,2,3-triazol-1-yl)butoxy)-2-(3,4-dihydroxyphenyl)-5,7-dihydroxy-4H-chromen-4-one] | equally effective in the antioxidant protection | 5.21 | 90.5 | 32.4 | Inhibition type (eqBuChE [3]): mixed type (non-competitive); Ki (eqBuChE [3]): 30 µM; Vmax app (eqBuChE [3]; inhibitor 17.5 µM): 7.5 U.mg^−1; Vmax app (eqBuChE [3]; inhibitor 35 µM): 6.5 U.mg^−1; Vmax app (eqBuChE [3]; inhibitor 70 µM): 4.5 U.mg^−1; cytotoxic concentration (MCF-7 cells [1]; human, 2 h): > 25 µM; concentrations without toxicity (Artemia salina): ≤ 10 µM; LC50 [4]: 10 to 100 µM; cytotoxic concentration [7]: > 10 µM; DPPH antioxidant activity ([6]; 100 μg/mL): potent antioxidant activity
O=c1c(OCCCCn2cc(C3(O)CCCC3)nn2)c(-c2ccc(O)c(O)c2)oc2cc(O)cc(O)c12 [IVc, 2-(3,4-Dihydroxyphenyl)-5,7-dihydroxy-3-(4-(4-(1-hydroxycyclopentyl)-1H-1,2,3-triazol-1-yl)butoxy)-4H-chromen-4-one] |  | 21.6 | 69.9 | 65.7 | 
Cc1ccc(C(C)C)c(OCc2cn(CCCCOc3c(-c4ccc(O)c(O)c4)oc4cc(O)cc(O)c4c3=O)nn2)c1 [IVe, 2-(3,4-Dihydroxyphenyl)-5,7-dihydroxy-3-(4-(4-((2-isopropyl-5-methylphenoxy)methyl)-1H-1,2,3-triazol-1-yl)butoxy)-4H-chromen-4-one] |  | 29.1 | 63.4 | > 150 | DPPH antioxidant activity ([6]; 100 μg/mL): potent antioxidant activity
COc1cc(OC)c2c(=O)c(OCc3cn(Cc4ccccc4)nn3)c(-c3ccc(OC)c(OC)c3)oc2c1 [Ia, 3-((1-Benzyl-1H-1,2,3-triazol-4-yl)methoxy)-2-(3,4-dimethoxyphenyl)-5,7-dimethoxy-4H-chromen-4-one] |  | 0 | 54.4 |  | 
COc1cc(OC)c2c(=O)c(OCc3cn(Cc4cccc(Cl)c4)nn3)c(-c3ccc(OC)c(OC)c3)oc2c1 [Ib, 3-((1-(3-Chlorobenzyl)-1H-1,2,3-triazol-4-yl)methoxy)-2-(3,4-dimethoxyphenyl)-5,7-dimethoxy-4H-chromen-4-one] |  | 0 | 63.3 |  | 
O=c1c(O)c(-c2ccc(O)c(O)c2)oc2cc(O)cc(O)c12 [Quercetin] | low capacity in cellular protection | 8.18 | 100 |  | IC50 (eqBuChE [5]): 18.2 µM
